The assay concerns the target T1, PH domain deleted SHIP1 (Mus musculus, UniProt Q9ES52, DEL292-400/E403A/P402A/Q401A).
T1 construct: Full length, wild-type SHIP1 enzyme (wt) or SHIP1 enzyme in which the PH or C2 domains were deleted; His6 (N); made in house; 293T cells are stated only for the wild-type enzyme
T1 sequence (Q9ES52 with tags, fused parts or gaps DEL292-400/Q401A/P402A/E403A): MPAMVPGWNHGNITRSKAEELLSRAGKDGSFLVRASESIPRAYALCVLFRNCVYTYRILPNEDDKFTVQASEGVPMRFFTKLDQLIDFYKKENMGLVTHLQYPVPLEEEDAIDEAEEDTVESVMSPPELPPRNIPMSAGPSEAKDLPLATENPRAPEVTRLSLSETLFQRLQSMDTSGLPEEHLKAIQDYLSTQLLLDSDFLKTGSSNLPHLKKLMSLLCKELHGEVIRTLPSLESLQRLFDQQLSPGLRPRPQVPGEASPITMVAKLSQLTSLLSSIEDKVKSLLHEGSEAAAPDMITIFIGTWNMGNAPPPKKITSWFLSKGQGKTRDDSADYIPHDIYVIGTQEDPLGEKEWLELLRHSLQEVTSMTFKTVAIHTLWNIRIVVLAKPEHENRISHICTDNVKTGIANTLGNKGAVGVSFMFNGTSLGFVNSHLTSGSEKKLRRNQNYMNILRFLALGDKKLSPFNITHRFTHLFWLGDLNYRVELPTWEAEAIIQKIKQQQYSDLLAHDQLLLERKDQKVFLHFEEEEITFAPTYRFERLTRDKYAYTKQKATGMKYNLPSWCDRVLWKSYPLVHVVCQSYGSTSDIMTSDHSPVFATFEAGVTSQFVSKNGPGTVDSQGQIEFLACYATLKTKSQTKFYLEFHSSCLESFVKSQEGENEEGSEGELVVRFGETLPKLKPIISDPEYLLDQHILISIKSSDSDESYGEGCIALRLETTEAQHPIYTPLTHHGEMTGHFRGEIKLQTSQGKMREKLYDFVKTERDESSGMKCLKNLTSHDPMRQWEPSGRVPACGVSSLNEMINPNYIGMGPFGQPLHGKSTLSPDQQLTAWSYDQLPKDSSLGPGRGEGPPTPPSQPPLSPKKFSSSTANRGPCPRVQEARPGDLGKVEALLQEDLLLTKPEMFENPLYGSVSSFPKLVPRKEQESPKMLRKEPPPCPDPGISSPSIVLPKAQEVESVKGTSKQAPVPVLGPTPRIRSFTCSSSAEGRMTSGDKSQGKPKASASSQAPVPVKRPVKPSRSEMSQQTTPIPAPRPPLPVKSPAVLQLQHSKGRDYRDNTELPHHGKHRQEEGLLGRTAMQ
Briefly: In vitro SHIP enzyme assay, PH domain deleted SHIP1. Format: biochemical. To be noted: FIG. 10, FIG. 14A. The text has this: The SHIP1 PH domain deletion mutant and an isolated PH domain construct were generated using techniques similar to those used for the C2 domain. More specifically, the PH domain (amino acids 984-1319) was deleted from the murine SHIP (mSHIP) cDNA as follows: using pME18S-mSHIP1 as a template, a 527 by PCR fragment (“Upstream Fragment”) was generated using the indicated primers to generate a fragment corresponding to sequence immediately upstream of the SHIP PH domain within which resides a unique AccI restriction cut site. A Nod restriction cut site was also introduced to the 3′ end of this fragment. The PCR product was digested with Acd and Nod, and gel purified. Using pME18S-mSHIP1 as a template, a 776 by PCR fragment (“Downstream Fragment”) was generated using the indicated primers corresponding to sequence immediately downstream of the SHIP PH domain within which resides a unique ClaI restriction cut site. A Nod restriction cut site was introduced to the 5′ end of this fragment. […]
In vitro SHIP enzyme assay. […] The reaction was allowed to proceed for 20 min at 37° C. and the amount of inorganic phosphate released assessed by the addition of Malachite Green reagent followed by an absorbance measurement at 650 nm (15). […] Enzyme data are expressed as the mean of triplicates+/−SEM. […]

“Also recorded” adds a separate entry of the source.

`Cc1cc(O)cc2c1[C@]1(C)CC[C@H]3C(C)(C)CCC[C@]3(C)[C@H]1C2` [AQX-MN100]: the “activation of SHIP1 with PH domain deleted” value is listed as “attenuates but does not prevent activation; also recorded: abrogates ability of SHIP to be activated”. Next, “phosphatidylinositol-3,4-bisphosphate [PI-3,4-P2, reference compound]”: “abrogates ability of SHIP to be activated”.
